Measured values: patent publication US20240270762A1, “PENICILLIN-BINDING PROTEIN INHIBITORS” (priority 2021, published 2024)

Target: T1, PBP2 from Neisseria gonorrhoeae (FA19) (Neisseria gonorrhoeae, UniProt P08149)
T1 construct: made in house
Assay: Bocillin-FL fluorescence polarization competition binding, N. gonorrhoeae PBP2
Details: fluorescence polarization competition binding assay using Bocillin-FL, read-out: N. gonorrhoeae PBP2 Potency
Outline: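 Fluorescence polarization competition with 0.1 μM Bocillin-FL (fluorescent penicillin V) against 0.25 μM N. gonorrhoeae FA19 PBP2 in 50 mM Hepes pH 8.0, 300 mM NaCl, 10% glycerol. Boronic acid inhibitors were preincubated with PBP, then Bocillin-FL was added and FP read (490/520 nm) up to 60 min. EC50 is the concentration halving PBP-bound Bocillin-FL.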

T1 sequence (P08149 whole entry): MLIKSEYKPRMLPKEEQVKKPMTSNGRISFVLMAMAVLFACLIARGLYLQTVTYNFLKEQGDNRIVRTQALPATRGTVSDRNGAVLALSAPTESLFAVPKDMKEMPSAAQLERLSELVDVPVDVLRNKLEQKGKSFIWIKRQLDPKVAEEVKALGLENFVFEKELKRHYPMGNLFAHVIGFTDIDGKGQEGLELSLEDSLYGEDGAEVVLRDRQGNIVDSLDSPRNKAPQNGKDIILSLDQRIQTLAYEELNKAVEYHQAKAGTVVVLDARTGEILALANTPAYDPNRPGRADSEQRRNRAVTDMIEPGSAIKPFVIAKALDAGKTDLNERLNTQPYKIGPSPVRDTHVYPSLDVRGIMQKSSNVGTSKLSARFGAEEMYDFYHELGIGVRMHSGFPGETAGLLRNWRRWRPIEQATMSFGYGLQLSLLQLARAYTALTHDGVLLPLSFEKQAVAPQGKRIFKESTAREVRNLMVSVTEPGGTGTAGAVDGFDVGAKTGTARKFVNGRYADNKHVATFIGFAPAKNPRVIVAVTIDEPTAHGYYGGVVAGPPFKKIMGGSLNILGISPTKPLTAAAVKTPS

Compound `CCN1CCN(C(=O)NC(C(=O)N[C@H]2Cc3cccc(C(=O)O)c3OB2O)c2ccc(P(=O)(O)O)c(F)c2O)C(=O)C1=O` (stereo partly drawn) [Example 198, (3R)-3-(2-(4-ethyl-2,3-dioxopiperazine-1-carboxamido)-2-(3-fluoro-2-hydroxy-4-phosphonophenyl)acetamido)-2-hydroxy-3,4-dihydro-2H-benzo[e][1,2]oxaborinine-8-carboxylic acid] has an EC50 of less than 10 µM.
